This is an account of results in patent publication US20040198605A1, “Growth promoter for gramineous plants” (priority 2001, published 2004).

Experiment [1] relates to Seedlings of lawns (western lawns; Evergreen Lawn Grass). Nature of the experiment: Hydroponics (water culture) of lawns, serine sprinkled over the surfaces of leaves. The experiment is classed as in vivo. As to conditions: 26th day. The procedure:
Seedlings of lawns (western lawns; Evergreen Lawn Grass) were raised and were divided into two groups, A and B, each consisting of 60 seedlings so as to carry out water culture. A given amount of a liquid fertilizer was added to a water culture solution, to which inosine was then added to a concentration of 0.2 ppm. The testing period started on Oct. 6, 1999 and ended on Nov. 1, 1999 (26 days). Group A was set as a control area. As for Group B, 5 ml of a solution so prepared as to have a serine concentration of 20 ppm was sprinkled over the surfaces of leaves every day over a period of 15 days. On the 26th day, the weight of 5 average grown seedlings selected from each group was measured.

The subject of experiment [2] is Lawn sods (bent grass; breed name: BENCROSS). As to the kind of experiment: Soil culture of lawns, leaf surface sprinkling test. The experiment is classed as in vivo. As to conditions: for Weight of Cut Stem/Leaf after Dried (mean of three pots) / Weight of Cut Stem/Leaf after Dried (individual pots): cut on 77th day; for Weight of Cut Stem/Leaf after Dried (individual pots): three pots. The protocol:
Lawn sods having a diameter of 4 cm and a thickness of 3 cm (bent grass; breed name: BENCROSS) were each planted in 1/50 m^2 Wagner pots, and a leaf surface sprinkling test was carried out on a group of three pots. To the soil of each pot, a chemical fertilizer (12-8-10) was add-mixed as the initial fertilizer in an amount of 1 g/pot. Serine was diluted with water to the concentrations shown in the following Table 1 and sprinkled by means of a sprinkler on the 10th day and 24th day after planting. On the 77th day after planting, the plant parts exposed on the ground were cut, and the weight thereof after dried was measured.

The mark [3] stands for this setting: 5 ml of serine 20 ppm sprinkled on leaves daily for 15 days, inosine 0.2 ppm in water culture solution, 5 average seedlings.

Values joined by “and” are separate entries in the source; they are usually repeats but may differ in a detail not shown here. Equal values may be shown once.

Consider `N[C@@H](CO)C(=O)O` [Serine, serine], for which, in experiment [1] (setting [3]), the “Average Leaf Length” value worked out at 22 cm. Also, in experiment [1] (setting [3]), the “Root Length” value turned out to be 4.1 cm. The “Root length, leaf length and total weight in the raw state (in words)” value in experiment [1] (serine-treated area) was “good”. Further, the “Total Weight in Raw State” value in experiment [1] (total of above-ground portions and roots of 5 undried lawn plants, serine 20 ppm on leaves daily for 15 days, inosine 0.2 ppm in water culture) is 0.35 g. Also, the “Weight of Cut Stem/Leaf after Dried (mean of three pots)” value in experiment [2] (serine 18.3 ppm sprinkled on 10th and 24th day) is 2.27 ± 0.12 g/pot; in experiment [2] (serine 183 ppm sprinkled on 10th and 24th day) it was 1.27 ± 0.16 g/pot. In addition, the “Weight of Cut Stem/Leaf after Dried (individual pots)” value is 2.17 g/pot and 2.43 g/pot and 2.20 g/pot in experiment [2] (serine 18.3 ppm sprinkled on leaf surfaces on 10th and 24th day after planting); 1.26 g/pot and 1.47 g/pot and 1.08 g/pot in experiment [2] (serine 183 ppm sprinkled on leaf surfaces on 10th and 24th day after planting). Besides, the “Percentage (dried weight, Control = 100)” value in experiment [2] (serine 18.3 ppm, 77th day, * statistically significant difference) is on record as 185*; in experiment [2] (serine 183 ppm, 77th day), 104. Besides, the “Growth (in words)” value in experiment [2] (serine-treated areas, particularly 18.3 ppm-treated areas, 77th day) is on record as “good growth was observed”.
